For one series, the target named is T1, human EGF-R (Homo sapiens, UniProt P00533).
T1 construct: expressed in transfected cells; host or cells: F/L-HERc cells (murine IL-3-dependent FDC-P1 line, transduced with retroviral vector LXSN carrying human EGF-R cDNA; packaging line GP+E86)
Briefly: Inhibition of EGF-dependent proliferation of F/L-HERc cells. The series is classed as cell-based. Conditions: F/L-HERc cells (murine IL-3-dependent line expressing human EGF-R), stimulated with EGF 20 ng/ml, 48 hours, Cell Titer 96 assay. The source says:
A cell line of murine origin dependent on interleukin-3-(IL-3) which was genetically modified to express functional human EGF-R was used here. The proliferation of these cells known as F/L-HERc can therefore be stimulated either by murine IL-3 or by EGF (cf. von Rüden, T. et al. in EMBO J . 7, 2749-2756 (1988) and Pierce, J. H. et al. in Science 239, 628-631 (1988)).
The starting material used for the F/L-HERc cells was the cell line FDC-P1, the production of which has been described by Dexter, T. M. et al. in J. Exp. Med. 152, 1036-1047 (1980). Alternatively, however, other growth-factor-dependent cells may also be used (cf. for example Pierce, J. H. et al. in Science 239, 628-631 (1988), Shibuya, H. et al. in Cell 70, 57-67 (1992) and Alexander, W. S. et al. in EMBO J. 10, 3683-3691 (1991)). […]
In order to determine the inhibitory activity of the compounds according to the invention the relative cell number was measured in O.D. units using the Cell Titer 96™ Aqueous Non-Radioactive Cell Proliferation Assay (Promega). […]

Melting point and IC50 data for 4 compounds are collected here from patent publication US6403580B1, “Quinazolines, pharmaceutical compositions containing these compounds, their use and processes for preparing them” (Boehringer Ingelheim Pharma KG, priority 2000, dated 2002).

SMILES strings stand for the structures. pIC50: −log10 of the molar value.

T1 sequence (P00533 25-1210): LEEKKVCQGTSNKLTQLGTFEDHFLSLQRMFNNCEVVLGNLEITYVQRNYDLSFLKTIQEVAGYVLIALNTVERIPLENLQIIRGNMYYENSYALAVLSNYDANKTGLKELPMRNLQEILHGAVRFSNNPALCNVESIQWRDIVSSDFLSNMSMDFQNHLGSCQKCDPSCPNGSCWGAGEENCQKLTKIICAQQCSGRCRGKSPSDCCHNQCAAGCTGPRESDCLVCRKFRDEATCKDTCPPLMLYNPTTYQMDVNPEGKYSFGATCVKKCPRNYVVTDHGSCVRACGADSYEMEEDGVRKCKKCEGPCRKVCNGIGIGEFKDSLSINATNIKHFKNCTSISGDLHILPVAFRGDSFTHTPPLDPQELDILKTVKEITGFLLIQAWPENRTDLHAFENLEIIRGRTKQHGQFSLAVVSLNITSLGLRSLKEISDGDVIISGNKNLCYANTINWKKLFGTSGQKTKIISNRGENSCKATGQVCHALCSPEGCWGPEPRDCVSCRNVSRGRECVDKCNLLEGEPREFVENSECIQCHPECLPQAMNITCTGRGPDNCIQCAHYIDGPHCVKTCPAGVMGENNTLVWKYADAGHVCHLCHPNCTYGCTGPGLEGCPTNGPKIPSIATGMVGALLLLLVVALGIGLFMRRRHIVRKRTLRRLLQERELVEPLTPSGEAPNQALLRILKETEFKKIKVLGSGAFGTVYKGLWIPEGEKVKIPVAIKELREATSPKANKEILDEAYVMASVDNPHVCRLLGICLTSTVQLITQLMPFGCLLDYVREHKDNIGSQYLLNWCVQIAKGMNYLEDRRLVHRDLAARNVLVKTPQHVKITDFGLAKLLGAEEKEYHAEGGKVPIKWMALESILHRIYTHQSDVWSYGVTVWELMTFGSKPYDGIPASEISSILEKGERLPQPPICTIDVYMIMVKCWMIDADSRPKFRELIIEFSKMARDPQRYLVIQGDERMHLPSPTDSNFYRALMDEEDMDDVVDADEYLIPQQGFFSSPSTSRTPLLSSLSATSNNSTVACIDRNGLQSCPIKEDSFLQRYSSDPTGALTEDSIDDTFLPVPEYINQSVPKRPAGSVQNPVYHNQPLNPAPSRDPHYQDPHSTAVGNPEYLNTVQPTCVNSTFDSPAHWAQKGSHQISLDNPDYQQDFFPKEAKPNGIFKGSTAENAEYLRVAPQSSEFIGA

`C=CC(=O)Nc1cc2c(Nc3ccc(F)c(Cl)c3)ncnc2cc1OCCN1CC(=O)OC(C)(C)C1` [Example 1(1), 4-[(3-chloro-4-fluoro-phenyl)amino]-7-[2-(2,2-dimethyl-6-oxo-morpholin-4-yl)-ethoxy]-6-[(vinylcarbonyl)amino]-quinazoline]: the melting point (in general, the temperature of the solid-liquid transition) lay within 182.5 to 184 °C. Take `C=CC(=O)Nc1cc2c(Nc3ccc(F)c(Cl)c3)ncnc2cc1OCCCCN1CC(=O)OC(C)(C)C1` [Example 1(15), 4-[(3-chloro-4-fluorophenyl)amino]-7-[4-(2,2-dimethyl-6-oxo-morpholin-4-yl)-butyloxy]-6-[(vinylcarbonyl)amino]-quinazoline]: the melting point fell in the range of 110 to 112 °C. Consider `C=CC(=O)Nc1cc2c(N[C@H](C)c3ccccc3)ncnc2cc1OCCN1CC(=O)OC(C)(C)C1` [1(2), 4-[(R)-(1-phenyl-ethyl)amino]-7-[2-(2,2-dimethyl-6-oxo-morpholin-4-yl)-ethoxy]-6-[(vinylcarbonyl)amino]-quinazoline], for which the pIC50 – broadly, the IC50 on a negative log10 scale, so that one unit is a factor of ten – at human EGF-R is 9.40. `C=CC(=O)Nc1cc2c(Nc3ccc(F)c(Cl)c3)ncnc2cc1OCCN(C)C1COC(=O)C1` (stereo not shown) [Example 1(11), 4-[(3-chloro-4-fluorophenyl)amino]-7-{2-[N-(2-oxo-tetrahydrofuran4-yl)-N-methyl-amino]-ethoxy}-6-[(vinylcarbonyl)amino]-quinazoline] came in with a melting point of 195 to 199 °C.
